Source: US20090178587A9, “Control of biofilms in industrial water systems” (priority 2001, published 2009)
“And” between values parts separate entries of the source, which are not always exact repeats. Equal values may be shown once. Read-outs that look alike come from different tables or passages of the source.

What was measured:
21-day old biofilms = conditions: 1 mg/L free residual; 30° C.; cited from earlier work
biofilm bacteria [1] = conditions: 1 ppm residuals; cited from earlier work
Legionella pneumophila = conditions: 1 mg/L for 24 hours; either metal surface; cited from earlier work
[2] = system: biofilms consisting of a consortium of Legionella, heterotrophic bacteria and amoebae; conditions: cited from earlier work
[3] = system: biofilms of Pseudomonas aeruginosa (ATCC 15442); assay: MBEC (minimum biofilm eradication concentration) test, 96-peg Calgary biofilm device; assay type: cell-based
[4] = system: biofilms of Sphaerotilus natans; conditions: dynamic tests; maximum applied dose 20 ppm; cited from earlier work
biofilm bacteria [5] = conditions: 1.5 mg/L applied continuously for 18 hours; cited from earlier work
[6] = system: HPC Bacteria (planktonic and biofilm); assay: Laboratory model water system, 48-hour biocide challenge and 14-day recovery: HPC bacteria; assay type: cell-based
[7] = system: biofilm-associated Legionella; conditions: cited from earlier work
sessile bacteria = conditions: pH 9; cited from earlier work
3-day biofilms = conditions: cited from earlier work
biofilm bacteria [8] = conditions: cited from earlier work
[9] = 7-day biofilm, one hour contact time, average, halogen biocides as Cl2
[10] = maximum log reduction, typically 2-12 hours after biocide application
[11] = relative to control after the 14-day recovery period
[12] = 1-day biofilm, one hour contact time, average, halogen biocides as Cl2, others as active ingredient
[13] = 1-day biofilm, one hour contact time, individual determinations, halogen biocides as Cl2, others as active ingredient

## CC1(C)C(=O)N(Cl)C(=O)N1Br [BCDMH, 1-bromo-3-chloro-5,5-dimethylhydantoin]
21-day old biofilms
  reduction of biofilm counts on mild steel: 1.4 logs
  reduction of biofilm counts on stainless steel: 2.0 logs
Biofilm bacteria [1]
  log kill of biofilm bacteria: 1 log
Legionella pneumophila
  viable Legionella recovered from the biofilms: no viable Legionella were recovered
[2]
  efficacy against biofilm-associated heterotrophic bacteria and Legionella: also effective but was slower acting
[3]
  1-Day Biofilm MBEC, avg.: 2.5 ppm
  1-Day Biofilm MBEC, ppm: 2.5, 2.5 ppm
  7-Day Biofilm MBEC, ppm: 5, 10 ppm
[3]; [9]
  7-Day Biofilm MBEC, avg.: 7.5 ppm

## [Na+].[O-]Cl [Bleach, NaOCl]
[3]
  1-Day Biofilm MBEC, avg.: 3.8 ppm
  1-Day Biofilm MBEC, ppm: 5.0, 2.5 ppm
  7-Day Biofilm MBEC, avg.: 20 ppm
  7-Day Biofilm MBEC, ppm: 20, 20 ppm

## CCC1(C)C(=O)N(Cl)C(=O)N1Br (centres unmarked) [BrMEH, bromo-chloro-methylethylhydantoin]
[4]
  treatment level for biofilm control (but not eradication): 10 ppm
Biofilm bacteria [1]
  log kill of biofilm bacteria: 0.7 log

## [O][Cl+][O-] [ClO2, Chlorine dioxide]
Biofilm bacteria [5]
  reduction of biofilm bacteria: 99.4%

## CC1(C)C(=O)N(Br)C(=O)N1Br [DBDMH, 1-3-dibromo-5,5-dimethylhydantoin]
[6]; [10]
  Log Reduction, HPC Bacteria, Biofilm: 2.7 log
  Log Reduction, HPC Bacteria, Planktonic: 3.6 log
[6]; [11]
  Log Reduction, HPC Bacteria, Biofilm: 0.4 log
  Log Reduction, HPC Bacteria, Planktonic: 0.2 log
[3]
  1-Day Biofilm MBEC, avg.: 1.2 ppm
  1-Day Biofilm MBEC, ppm: 1.2 ppm
  7-Day Biofilm MBEC, avg.: 5 ppm
  7-Day Biofilm MBEC, ppm: 5, 5 ppm
  MBEC: 1.4 mg/L

## N#CC(Br)(Br)C(N)=O [DBNPA, Dibromonitrilopropionamide]
[7]
  effect on levels of biofilm-associated Legionella: non detectable levels
[3]; [12]
  1-Day Biofilm MBEC, avg.: 3.1 ppm
[3]; [13]
  1-Day Biofilm MBEC, ppm: 2.0 ppm and 4.1 ppm

## CCCCCCCCCCSCCN.Cl [DTEA, decylthioethaneamine hydrochloride]
[3]; [12]
  1-Day Biofilm MBEC, avg.: 100 ppm
[3]; [13]
  1-Day Biofilm MBEC, ppm: 100, 100 ppm

## O=CCCCC=O [Glutaraldehyde, glutaraldehyde]
Sessile bacteria
  log reductions in sessile bacteria / biofilm counts: 2 log
[7]
  effect on levels of biofilm-associated Legionella: non detectable levels
[2]
  efficacy against biofilm-associated heterotrophic bacteria and Legionella: effective
[3]; [12]
  1-Day Biofilm MBEC, avg.: 50 ppm
[3]; [13]
  1-Day Biofilm MBEC, ppm: 50, 50 ppm
[3]; [9]
  7-Day Biofilm MBEC, avg.: ~200 ppm
[3]; 7-day biofilm, one hour contact time, individual determinations, halogen biocides as Cl2
  7-Day Biofilm MBEC, ppm: 100 ppm and > 200 ppm
3-day biofilms
  "no effect" level on biofilm removal: 20 ppm

## OO [H2O2, hydrogen peroxide]
Sessile bacteria
  log reductions in sessile bacteria / biofilm counts: 2 log
[3]
  1-Day Biofilm MBEC, avg.: >200 ppm
  1-Day Biofilm MBEC, ppm: >100, >100 ppm

## OBr [HOBr, hypobromous acid]
[4]
  treatment level for biofilm control (but not eradication): 15 ppm

## OCl [HOCl, Hypochlorous acid]
[4]
  treatment level for biofilm control (but not eradication): > 20 ppm

## CC(=O)OO [Peracetic Acid, peracetic acid]
[3]; 1-day biofilm, four-hour contact time, average (est.)
  1-Day Biofilm MBEC, avg.: ~150 ppm
[3]; 1-day biofilm, four-hour contact time, individual determinations, active ingredient
  1-Day Biofilm MBEC, ppm: 100, >100 ppm

## O=S(=O)([O-])[O-].OC[P+](CO)(CO)CO.OC[P+](CO)(CO)CO [THPS]
Sessile bacteria
  log reductions in sessile bacteria / biofilm counts: 2 log

## O=c1n(Cl)c(=O)n(Cl)c(=O)n1Cl [Trichlor, 1,3,5-trichloroisocyanuric acid]
[3]
  1-Day Biofilm MBEC, avg.: 1.9 ppm
  1-Day Biofilm MBEC, ppm: 2.5, 1.2 ppm
  7-Day Biofilm MBEC, avg.: 20 ppm
  7-Day Biofilm MBEC, ppm: 20, 20 ppm

## BrBr [bromine]
[7]
  effect on levels of biofilm-associated Legionella: non detectable levels
Biofilm bacteria [8]
  log reductions of biofilm bacteria: ~3 log

## O=[O+][O-] [ozone]
[7]
  effect on levels of biofilm-associated Legionella: did not appear to significantly affect
